In paper PMC7179112, “Antimicrobial, Antioxidant, and Anticancer Activities of Some Novel Isoxazole Ring Containing Chalcone and Dihydropyrazole Derivatives” (Molecules, 2020):
≈ marks a conversion by molar mass, not a printed value.

Tests used:
[1] = system: Staphylococcus aureus; assay: Antibacterial activity, serial tube dilution method; type: cell-based; conditions: Staphylococcus aureus; Gram-positive; serial tube dilution; read-out: MIC S aureus
Procedure: (§1) The target chalcones (17–31) and pyrazolines (32–46) were tested for their antimicrobial activities by serial tube dilution method against two types of bacterial and fungal strains (Table 1 and Table 2). The bacterial strains used for the testing, including Gram-positive Staphylococcus aureus and Gram-negative Pseudomonas aeruginosa, whereas the fungal strains employed were Aspergillus niger and Candida tropicalis.
(§2) The antibacterial and antifungal activity of the novel chalcones (17 to 31) and dihydropyrazoles (32 to 46) against the selected bacterial and fungal strains was assessed by following the procedure described in our previous paper.

[2] = system: Pseudomonas aeruginosa; assay: as above; type: cell-based; conditions: Pseudomonas aeruginosa; Gram-negative; serial tube dilution; read-out: MIC P aeruginosa
Procedure: as §1, §2

[3] = DPPH free radical scavenging assay; conditions: antioxidant activity; average of three independent experiments
Procedure: The antioxidant activity of all 30 compounds was assessed using 1,1-diphenyl-2-picrylhydrazine (DPPH) free radical scavenging assay and the results are the average of three independent experiments (Table 3). Gallic acid was employed as a positive control. […] In the disubstituted series (20–25), compound 25 with substitutions at position 3 and 5 on the phenyl ring gave the highest activity of 9 µg/mL.
The purpose of this study was to evaluate the antioxidant activity of chalcones and pyrazolines using the DPPH free radical assay. The percentage of antioxidant activity (AA%) of all the compounds was assessed by the DPPH free radical assay. The measurement of the DPPH radical scavenging activity was performed according to methodology described by Brand-Williams et al. The samples were reacted with the stable DPPH radical in an ethanol solution. A 0.1 mM solution of DPPH was prepared by dissolving DPPH in methanol. Gallic acid was taken as a reference standard and different concentrations of test samples (5–100 µg/mL) and standard (1.0, 2.5, and 5.0 µg/mL) were prepared using methanol. One milliliter of 0.1 mM DPPH solution was added to 3 mL of all concentrations of test samples and standard separately. These mixtures were kept in dark for about 30 min and the absorbance was measured at 517 nm. The capability to scavenge the DPPH radical was calculated using the formula:(1) DPPH scavanged (%)= Absorbance of control−Absorbance of sample/Absorbance of control∗100 when DPPH reacted with an antioxidant compound and was reduced, the change in color (from deep violet to light yellow) was read [Absorbance (Abs)] at 517 nm after […] of reaction using a UV-VIS spectrophotometer.

[4] = system: Human Normal Cells (L02); assay: MTT assay toxicity on normal cells; type: cell-based
[5] = system: prostate cancer cell line, DU-145; assay: MTT assay anticancer activity; type: cell-based; conditions: Homo sapiens, MTT assay, mean ± SD (n = 3)
Procedure: All the 30 compounds were evaluated for their anticancer potency against the prostate cancer cell line, DU-145, employing colorimetric tetrazolium dye (MTT) assay. […] Among the disubstituted series 20–25, substitution at position 3 and 4 (compound 24) produced the best activity but was lower than the standard. […] Similar phenomena can be seen among the dihydropyrazole series.
The in vitro anticancer activity of chalcones (17 to 31) and dihydropyrazoles (32 to 46) was evaluated by the Mosmann’s MTT assay as described previously.

[6] = system: Aspergillus niger; assay: Antifungal activity, serial tube dilution method; type: cell-based
Procedure: as §1, §2

[7] = system: Candida tropicalis; assay: Antifungal activity, serial tube dilution method; type: cell-based; conditions: read-out: MIC C tropicalis
Procedure: as §1, §2

[8] = system: Staphylococcus aureus and Pseudomonas aeruginosa; assay: Antibacterial activity (strain not named); type: cell-based; conditions: text/figure value, strain not named
Procedure: as §1, §2

[9] = system: Aspergillus niger and Candida tropicalis; assay: Antifungal activity (strain not named); type: cell-based; conditions: text/figure value, strain not named
Procedure: as §1, §2

SMILES: O=C(O)c1cn(C2CC2)c2cc(N3CCNCC3)c(F)cc2c1=O [Ciprofloxacin, reference compound]
- MIC [1]: 2 µg/mL (≈ 6.04 µM)
- MIC [2]: 2 µg/mL (≈ 6.04 µM)

SMILES: COc1ccc(/C=C/C(=O)c2ccno2)cc1 [Compound 17]
- DPPH assay IC50 [3]: 33 ± 1 µg/mL
- IC50 [4]: > 40 µg/mL
- IC50 [5]: 32 ± 2 µg/mL (≈ 140 µM)
- MIC [1]: 4 µg/mL (≈ 17.4 µM)
- MIC [2]: 8 µg/mL (≈ 34.9 µM)
- MIC [6]: 8 µg/mL (≈ 34.9 µM)
- MIC [7]: 8 µg/mL (≈ 34.9 µM)

SMILES: COc1ccccc1/C=C/C(=O)c1ccno1 [Compound 19]
- DPPH assay IC50 [3]: 32 ± 2 µg/mL
- IC50 [4]: > 40 µg/mL
- IC50 [5]: 36 ± 1 µg/mL (≈ 157 µM)
- MIC [1]: 4 µg/mL (≈ 17.4 µM)
- MIC [2]: 4 µg/mL (≈ 17.4 µM)
- MIC [6]: 8 µg/mL (≈ 34.9 µM)
- MIC [7]: 16 µg/mL (≈ 69.8 µM)

SMILES: COc1cccc(/C=C/C(=O)c2ccno2)c1OC [Compound 20]
- DPPH assay IC50 [3]: 24 ± 1 µg/mL
- IC50 [4]: > 40 µg/mL
- IC50 [5]: 22 ± 1 µg/mL (≈ 84.9 µM)
- MIC [1]: 32 µg/mL (≈ 123 µM)
- MIC [2]: 64 µg/mL (≈ 247 µM)
- MIC [6]: 64 µg/mL (≈ 247 µM)
- MIC [7]: 32 µg/mL (≈ 123 µM)

SMILES: COc1ccc(/C=C/C(=O)c2ccno2)c(OC)c1 [Compound 21]
- DPPH assay IC50 [3]: 18 ± 2 µg/mL
- IC50 [4]: > 40 µg/mL
- IC50 [5]: 29 ± 2 µg/mL (≈ 112 µM)
- MIC [1]: 2 µg/mL (≈ 7.71 µM)
- MIC [2]: 4 µg/mL (≈ 15.4 µM)
- MIC [6]: 8 µg/mL (≈ 30.9 µM)
- MIC [7]: 16 µg/mL (≈ 61.7 µM)

SMILES: COc1ccc(OC)c(/C=C/C(=O)c2ccno2)c1 [Compound 22]
- DPPH assay IC50 [3]: 26 ± 2 µg/mL
- IC50 [4]: > 40 µg/mL
- IC50 [5]: 38 ± 1 µg/mL (≈ 147 µM)
- MIC [1]: 32 µg/mL (≈ 123 µM)
- MIC [2]: 32 µg/mL (≈ 123 µM)
- MIC [6]: 64 µg/mL (≈ 247 µM)
- MIC [7]: 64 µg/mL (≈ 247 µM)

SMILES: COc1cccc(OC)c1/C=C/C(=O)c1ccno1 [Compound 23]
- DPPH assay IC50 [3]: 16 ± 1 µg/mL
- IC50 [4]: > 40 µg/mL
- IC50 [5]: 33 ± 2 µg/mL (≈ 127 µM)
- MIC [1]: 4 µg/mL (≈ 15.4 µM)
- MIC [2]: 4 µg/mL (≈ 15.4 µM)
- MIC [6]: 4 µg/mL (≈ 15.4 µM)
- MIC [7]: 4 µg/mL (≈ 15.4 µM)

SMILES: COc1ccc(/C=C/C(=O)c2ccno2)cc1OC [Compound 24]
- DPPH assay IC50 [3]: 29 ± 1 µg/mL
- IC50 [4]: > 40 µg/mL
- IC50 [5]: 6 ± 2 µg/mL (≈ 23.1 µM)
- MIC [1]: 64 µg/mL (≈ 247 µM)
- MIC [2]: 32 µg/mL (≈ 123 µM)
- MIC [6]: 128 µg/mL (≈ 494 µM)
- MIC [7]: 64 µg/mL (≈ 247 µM)

SMILES: COc1cc(OC)c(OC)cc1/C=C/C(=O)c1ccno1 [Compound 27]
- DPPH assay IC50 [3]: 7 ± 2 µg/mL
- IC50 [4]: > 40 µg/mL
- IC50 [5]: 26 ± 3 µg/mL (≈ 89.9 µM)
- MIC [1]: 16 µg/mL (≈ 55.3 µM)
- MIC [2]: 16 µg/mL (≈ 55.3 µM)
- MIC [6]: 32 µg/mL (≈ 111 µM)
- MIC [7]: 32 µg/mL (≈ 111 µM)

SMILES: COc1cc(OC)c(/C=C/C(=O)c2ccno2)c(OC)c1 [Compound 28]
- DPPH assay IC50 [3]: 5 ± 1 µg/mL
- MIC [8]: 1 µg/mL (≈ 3.46 µM)
- antibacterial MIC [8]: 1 µg/mL
- IC50 [4]: > 40 µg/mL
- MIC [9]: 2 µg/mL (≈ 6.91 µM)
- IC50 [5]: 30 ± 2 µg/mL (≈ 104 µM)
- MIC [1]: 1 µg/mL (≈ 3.46 µM)
- MIC [2]: 1 µg/mL (≈ 3.46 µM)
- MIC [6]: 2 µg/mL (≈ 6.91 µM)
- MIC [7]: 2 µg/mL (≈ 6.91 µM)

SMILES: COc1ccc(/C=C/C(=O)c2ccno2)c(F)c1OC [Compound 30]
- DPPH assay IC50 [3]: 45 ± 2 µg/mL
- IC50 [4]: > 40 µg/mL
- IC50 [5]: 5 ± 2 µg/mL (≈ 18 µM)
- MIC [1]: 4 µg/mL (≈ 14.4 µM)
- MIC [2]: 4 µg/mL (≈ 14.4 µM)
- MIC [6]: 16 µg/mL (≈ 57.7 µM)
- MIC [7]: 16 µg/mL (≈ 57.7 µM)

SMILES: COc1cc(Cl)c(/C=C/C(=O)c2ccno2)c(OC)c1 [Compound 31]
- DPPH assay IC50 [3]: 48 ± 1 µg/mL
- IC50 [4]: > 40 µg/mL
- IC50 [5]: 16 ± 2 µg/mL (≈ 54.5 µM)
- MIC [1]: 2 µg/mL (≈ 6.81 µM)
- MIC [2]: 2 µg/mL (≈ 6.81 µM)
- MIC [6]: 4 µg/mL (≈ 13.6 µM)
- MIC [7]: 4 µg/mL (≈ 13.6 µM)

SMILES: COc1ccc(C2CC(c3ccno3)=NN2C(N)=O)cc1 (stereo not shown) [Compound 32]
- DPPH assay IC50 [3]: 44 ± 1 µg/mL
- IC50 [4]: > 40 µg/mL
- MIC [9]: 4 µg/mL (≈ 14 µM)
- IC50 [5]: 28 ± 1 µg/mL (≈ 97.8 µM)
- MIC [1]: 16 µg/mL (≈ 55.9 µM)
- MIC [2]: 16 µg/mL (≈ 55.9 µM)
- MIC [6]: 4 µg/mL (≈ 14 µM)
- MIC [7]: 4 µg/mL (≈ 14 µM)

SMILES: COc1cccc(C2CC(c3ccno3)=NN2C(N)=O)c1 (stereo not shown) [Compound 33]
- DPPH assay IC50 [3]: 51 ± 2 µg/mL
- IC50 [4]: > 40 µg/mL
- IC50 [5]: 18 ± 2 µg/mL (≈ 62.9 µM)
- MIC [1]: 128 µg/mL (≈ 447 µM)
- MIC [2]: 128 µg/mL (≈ 447 µM)
- MIC [6]: 64 µg/mL (≈ 224 µM)
- MIC [7]: 64 µg/mL (≈ 224 µM)
